The values that follow are results of earlier work, collected in patent publication US20070232589A1, “Pharmaceutical Composition And Method For Treating Neurodegenerative Disorders” (Myriad Genetics, Incorporated, priority 2004, published 2007).

Read-outs that look alike come from different tables or passages of the source.

The conditions of data set [1]: clinical trial; rofecoxib 25 mg daily.
The conditions of data set [2]: in vivo excitotoxic model.
The conditions of data set [3]: patients having mild cognitive impairment.
In data set [4] the test system is COX.
For data set [5], the system named is Aβ42. To be noted: transgenic mouse model.
Data set [6] has as its system Aβ42. To be noted: CHO cells.
The conditions of data set [7]: 50 mg and 100 mg doses, human subjects.
For data set [8] the following is noted: in vivo.

On to `CS(=O)(=O)c1ccc(C2=C(c3ccccc3)C(=O)OC2)cc1` [rofecoxib], for which, in data set [1], the “efficacy for treating AD” value is given as “failed to show efficacy”. In addition, the neuroprotection entry in data set [2] is listed as “provides neuroprotection”. Moreover, the “prevention of development of Alzheimer's disease” value in data set [3] is on record as “failed to prevent the development of Alzheimer's disease”. The “patients who developed AD” value in data set [3] (placebo 4.5%) is recorded as 6.4%.
In the case of `C[C@@H](C(=O)O)c1ccc(-c2ccccc2)c(F)c1` [(R)-2-(2-fluoro-4-biphenylyl)propionic acid], the “inhibition of COX activity” value in data set [4] was “negligibly inhibits COX activity”. The Aβ42 lowering result in data set [5] and in data set [6] was “lower Aβ42” each time. Moreover, the analgesic effect result in data set [7] is listed as “produced an analgesic effect”.
For the compound `CC12CC3CC(C)(C1)CC(N)(C3)C2` [memantine], the “efficacy in treating mild-to-moderate AD” value in data set [8] is on record as “showed efficacy”.
For `COc1ccc2cc([C@H](C)C(=O)O)ccc2c1` [Naproxen], in data set [1], the “efficacy for treating AD” value was “failed to show efficacy”.
